Results as given in ChEMBL document CHEMBL2413072, “Synthesis and in vitro anticancer studies of novel C-2 arylidene congeners of lantadenes” (2013).

What was measured:
Format in all cases: functional
OVCAR-3 [1] = assay: Growth inhibition of human OVCAR3 cells assessed as cell growth at 10^-7 M by sulforhodamine B assay; conditions: read-out: Activity
HOP-92 = assay: Growth inhibition of human HOP92 cells assessed as cell growth at 10^-6 M by sulforhodamine B assay; conditions: read-out: Activity
SF-295 = assay: Growth inhibition of human SF295 cells assessed as cell growth at 10^-6 M by sulforhodamine B assay; conditions: read-out: Activity
[2] = Growth inhibition of human NCI-ADR-RES cells assessed as cell growth at 10^-4 M by sulforhodamine B assay; conditions: read-out: Activity
ACHN [3] = assay: Growth inhibition of human ACHN cells assessed as cell growth at 10^-6 M by sulforhodamine B assay; conditions: read-out: Activity
SK-MEL-28 [4] = assay: Growth inhibition of human SK-MEL-28 cells assessed as cell growth at 10^-4 M by sulforhodamine B assay; conditions: read-out: Activity
RPMI-8226 = assay: Growth inhibition of human RPMI8226 cells assessed as cell growth at 10^-6 M by sulforhodamine B assay; conditions: read-out: Activity
NCI-H322M = assay: Growth inhibition of human NCI-H322M cells assessed as cell growth at 10^-6 M by sulforhodamine B assay; conditions: read-out: Activity
NCI-H522 = assay: Growth inhibition of human NCI-H522 cells assessed as cell growth at 10^-8 M by sulforhodamine B assay; conditions: read-out: Activity
HL-60(TB) = assay: Growth inhibition of human HL-60(TB) cells assessed as cell growth at 10^-6 M by sulforhodamine B assay; conditions: read-out: Activity
LOX IMVI [5] = assay: Growth inhibition of human LOXIMVI cells assessed as cell growth at 10^-6 M by sulforhodamine B assay; conditions: read-out: Activity
NCI-H226 = assay: Growth inhibition of human NCI-H226 cells assessed as cell growth at 10^-7 M by sulforhodamine B assay; conditions: read-out: Activity
RXF 393 [6] = assay: Growth inhibition of human RXF393 cells by sulforhodamine B assay
MDA-MB-468 = assay: Growth inhibition of human MDA-MB-468 cells assessed as cell growth at 10^-4 M by sulforhodamine B assay; conditions: read-out: Activity
786-0 [7] = assay: Growth inhibition of human 786-0 cells assessed as cell growth at 10^-7 M by sulforhodamine B assay; conditions: read-out: Activity
SR = assay: Growth inhibition of human SR cells assessed as cell growth at 10^-7 M by sulforhodamine B assay; conditions: read-out: Activity
RXF 393 [8] = assay: Growth inhibition of human RXF393 cells assessed as cell growth at 10^-4 M by sulforhodamine B assay; conditions: read-out: Activity
OVCAR-3 [9] = assay: Growth inhibition of human OVCAR3 cells assessed as cell growth at 10^-8 M by sulforhodamine B assay; conditions: read-out: Activity
ACHN [10] = assay: Growth inhibition of human ACHN cells by sulforhodamine B assay
BT-549 = assay: Growth inhibition of human BT549 cells assessed as cell growth at 10^-4 M by sulforhodamine B assay; conditions: read-out: Activity
SK-OV-3 = assay: Growth inhibition of human SKOV3 cells assessed as cell growth at 10^-8 M by sulforhodamine B assay; conditions: read-out: Activity
UACC-257 = assay: Growth inhibition of human UACC257 cells assessed as cell growth at 10^-7 M by sulforhodamine B assay; conditions: read-out: Activity
786-0 [11] = assay: Growth inhibition of human 786-0 cells by sulforhodamine B assay
A498 = assay: Growth inhibition of human A498 cells assessed as cell growth at 10^-8 M by sulforhodamine B assay; conditions: read-out: Activity
RXF 393 [12] = assay: Growth inhibition of human RXF393 cells assessed as cell growth at 10^-8 M by sulforhodamine B assay; conditions: read-out: Activity
SK-MEL-28 [13] = assay: Growth inhibition of human SK-MEL-28 cells assessed as cell growth at 10^-7 M by sulforhodamine B assay; conditions: read-out: Activity
IGROV-1 = assay: Growth inhibition of human IGROV1 cells assessed as cell growth at 10^-7 M by sulforhodamine B assay; conditions: read-out: Activity
OVCAR-5 = assay: Growth inhibition of human OVCAR5 cells assessed as cell growth at 10^-8 M by sulforhodamine B assay; conditions: read-out: Activity
CCRF-CEM = assay: Growth inhibition of human CCRF-CEM cells assessed as cell growth at 10^-4 M by sulforhodamine B assay; conditions: read-out: Activity
LOX IMVI [14] = assay: Growth inhibition of human LOXIMVI cells assessed as cell growth at 10^-4 M by sulforhodamine B assay; conditions: read-out: Activity
K562 = assay: Growth inhibition of human K562 cells assessed as cell growth at 10^-7 M by sulforhodamine B assay; conditions: read-out: Activity
UACC-62 = assay: Growth inhibition of human UACC62 cells assessed as cell growth at 10^-8 M by sulforhodamine B assay; conditions: read-out: Activity
NCI-H23 = assay: Growth inhibition of human NCI-H23 cells assessed as cell growth at 10^-4 M by sulforhodamine B assay; conditions: read-out: Activity
M14 = assay: Growth inhibition of human M14 cells assessed as cell growth at 10^-6 M by sulforhodamine B assay; conditions: read-out: Activity
[15] = Growth inhibition of human NCI-ADR-RES cells assessed as cell growth at 10^-6 M by sulforhodamine B assay; conditions: read-out: Activity
[16] = read-out: LC50 (the source's name)
[17] = read-out: pLC50 (the source's name) (converted)

Compound `C/C=C(/C)C(=O)O[C@@H]1CC(C)(C)C[C@H]2C3=CC[C@@H]4[C@@]5(C)CCC(=O)C(C)(C)[C@@H]5CC[C@@]4(C)[C@]3(C)CC[C@@]12C(=O)O` [LANTADENE A] has a growth at 0.1 µM (OVCAR-3 [1]) of 109%, a growth at 1 µM (HOP-92) of 56% and a growth at 1 µM (SF-295) of 88%. It also gave a growth at 100 µM [2] of 18%, a growth at 1 µM (ACHN [3]) of 92% and a growth at 100 µM (SK-MEL-28 [4]) of 42%. For the same compound, the growth at 1 µM (RPMI-8226) was 64%, the growth at 1 µM (NCI-H322M) was 90% and the growth at 0.01 µM (NCI-H522) was 109%. For the same compound, the growth at 1 µM (HL-60(TB)) was 80%, the growth at 1 µM (LOX IMVI [5]) was 92% and the growth at 0.1 µM (NCI-H226) was 81%. For the same compound, the GI50 (RXF 393 [6]; read-out: GI50) was 2.41 µM, the CC50 (RXF 393 [6]; [16]) was greater than 100 µM and the TGI (RXF 393 [6]; read-out: TGI) was 9.93 µM. The GI50 (RXF 393 [6]; read-out: pGI50 (converted)) was 2.4 µM, the CC50 (RXF 393 [6]; [17]) was greater than 100 µM and the TGI (RXF 393 [6]; read-out: pTGI (converted)) was 10 µM. For the same compound, the growth at 100 µM (MDA-MB-468) was 1%, the growth at 0.1 µM (786-0 [7]) was 94% and the growth at 0.1 µM (SR) was 79%. The growth at 100 µM (RXF 393 [8]) was -15%, the growth at 0.01 µM (OVCAR-3 [9]) was 109% and the GI50 (ACHN [10]; read-out: GI50) was 4.94 µM. For the same compound, the CC50 (ACHN [10]; [16]) was greater than 100 µM, the TGI (ACHN [10]; read-out: TGI) was greater than 100 µM and the GI50 (ACHN [10]; read-out: pGI50 (converted)) was 4.9 µM. For the same compound, the CC50 (ACHN [10]; [17]) was greater than 100 µM, the TGI (ACHN [10]; read-out: pTGI (converted)) was greater than 100 µM and the growth at 100 µM (BT-549) was 18%. It also gave a growth at 0.01 µM (SK-OV-3) of 103%, a growth at 0.1 µM (UACC-257) of 93% and a GI50 (786-0 [11]; read-out: GI50) of 3.47 µM. The CC50 (786-0 [11]; [16]) was greater than 100 µM, the TGI (786-0 [11]; read-out: TGI) was greater than 100 µM and the GI50 (786-0 [11]; read-out: pGI50 (converted)) was 3.47 µM. For the same compound, the CC50 (786-0 [11]; [17]) was greater than 100 µM, the TGI (786-0 [11]; read-out: pTGI (converted)) was greater than 100 µM and the growth at 0.01 µM (A498) was 83%. It also gave a growth at 0.01 µM (RXF 393 [12]) of 95%, a growth at 0.1 µM (SK-MEL-28 [13]) of 95% and a growth at 0.1 µM (IGROV-1) of 111%. For the same compound, the growth at 0.01 µM (OVCAR-5) was 101%, the growth at 100 µM (CCRF-CEM) was 9% and the growth at 100 µM (LOX IMVI [14]) was 33%. It also gave a growth at 0.1 µM (K562) of 100%, a growth at 0.01 µM (UACC-62) of 97% and a growth at 100 µM (NCI-H23) of 12%. The growth at 1 µM (M14) was 80% and the growth at 1 µM [15] was 97%.
For `CC(C)=CC(=O)O[C@@H]1CC(C)(C)C[C@H]2C3=CC[C@@H]4[C@@]5(C)CC[C@H](O)C(C)(C)[C@@H]5CC[C@@]4(C)[C@]3(C)CC[C@@]12C(=O)O` [Reduced Lantadene B], the growth at 0.1 µM (OVCAR-3 [1]) was 105%, the growth at 1 µM (HOP-92) was 70% and the growth at 1 µM (SF-295) was 59%. The growth at 100 µM [2] was -30%, the growth at 1 µM (ACHN [3]) was 64% and the growth at 100 µM (SK-MEL-28 [4]) was -64%. It also gave a growth at 1 µM (RPMI-8226) of 65%, a growth at 1 µM (NCI-H322M) of 94% and a growth at 0.01 µM (NCI-H522) of 92%. For the same compound, the growth at 1 µM (HL-60(TB)) was 96%, the growth at 1 µM (LOX IMVI [5]) was 88% and the growth at 0.1 µM (NCI-H226) was 88%. For the same compound, the GI50 (RXF 393 [6]; read-out: GI50) was 2.58 µM, the CC50 (RXF 393 [6]; [16]) was 35.6 µM and the TGI (RXF 393 [6]; read-out: TGI) was 7.69 µM. The GI50 (RXF 393 [6]; read-out: pGI50 (converted)) was 2.57 µM, the CC50 (RXF 393 [6]; [17]) was 35.5 µM and the TGI (RXF 393 [6]; read-out: pTGI (converted)) was 7.76 µM. For the same compound, the growth at 100 µM (MDA-MB-468) was -77%, the growth at 0.1 µM (786-0 [7]) was 96% and the growth at 0.1 µM (SR) was 104%. The growth at 100 µM (RXF 393 [8]) was -81%, the growth at 0.01 µM (OVCAR-3 [9]) was 104% and the GI50 (ACHN [10]; read-out: GI50) was 2.93 µM. The CC50 (ACHN [10]; [16]) was 58.5 µM, the TGI (ACHN [10]; read-out: TGI) was 20.4 µM and the GI50 (ACHN [10]; read-out: pGI50 (converted)) was 2.95 µM. For the same compound, the CC50 (ACHN [10]; [17]) was 58.9 µM, the TGI (ACHN [10]; read-out: pTGI (converted)) was 20.4 µM and the growth at 100 µM (BT-549) was -65%. The growth at 0.01 µM (SK-OV-3) was 102%, the growth at 0.1 µM (UACC-257) was 93% and the GI50 (786-0 [11]; read-out: GI50) was 3.06 µM. It also gave a CC50 (786-0 [11]; [16]) of 50.7 µM, a TGI (786-0 [11]; read-out: TGI) of 11.5 µM and a GI50 (786-0 [11]; read-out: pGI50 (converted)) of 3.09 µM. It also gave a CC50 (786-0 [11]; [17]) of 51.3 µM, a TGI (786-0 [11]; read-out: pTGI (converted)) of 11.5 µM and a growth at 0.01 µM (A498) of 84%. The growth at 0.01 µM (RXF 393 [12]) was 97%, the growth at 0.1 µM (SK-MEL-28 [13]) was 100% and the growth at 0.1 µM (IGROV-1) was 106%. For the same compound, the growth at 0.01 µM (OVCAR-5) was 95%, the growth at 100 µM (CCRF-CEM) was -16% and the growth at 100 µM (LOX IMVI [14]) was -35%. The growth at 0.1 µM (K562) was 91%, the growth at 0.01 µM (UACC-62) was 94% and the growth at 100 µM (NCI-H23) was -58%. It also gave a growth at 1 µM (M14) of 89% and a growth at 1 µM [15] of 90%.
